One assay relates to PLCβ1−/− mice. The assay is described as follows: Prepulse inhibition (PPI) of acoustic startle response in PLCβ1−/− mice. The class given is in vivo, mouse. To be noted: 0.2 mg/kg i.p. 45 minutes before the test, prepulse 74, 82, 90 dB, p<0.05 vs vehicle. How it is done: (§1) PPI tests were carried out with 26 responder mice 13˜15 weeks old by using a single acoustic startle chamber (Coulbourn Instruments, USA), one mouse at a time. The startle reflex was triggered by a pulse stimulus in the form of a 40 msec, 120 dB burst of white noise (SS). Inhibition of the SS-elicited startle response was achieved using a 20 msec-prepulse stimulus of various intensities (74, 82, and 90 dB white noise) that preceded SS by 100 msec.
(§2) The test was composed of a series of 7 blocks, each of which was a “semi-random” mixture of 8 different trial types (no stimulus, SS only, three PP only, three PP plus SS), separated by 10 to 15-second intertrial intervals. The percent prepulse inhibition (%PPI) was calculated as [1−(response to PP-SS coupling/response to SS only)]×100.
(§3) Haloperidol (0.2 mg/kg body weight) was intraperitonealy (i.p.) administered 45 minutes before the test, using 0.5% dimethylsulfoxide (DMSO) in saline (0.9% NaCl) as the vehicle. Haloperidol (Tocris Cookson, UK) stock solution was prepared in DMSO and stored at […] for less than a month.

Another assay has as its system wild-type mice. The assay is described as follows: Prepulse inhibition (PPI) of acoustic startle response in wild-type mice. The class given is in vivo, mouse. The note with it: 0.2 mg/kg i.p. 45 minutes before the test, vs vehicle. How it is done:
as §1, §2, §3

Results on one molecule are retold here after patent publication US7521590B2, “Phospholipase C β1 (PLCβ1) knockout mice as a model system for testing schizophrenia drugs” (Korea Institute of Science and Technology, priority 2006, dated 2009).

On to `O=C(CCCN1CCC(O)(c2ccc(Cl)cc2)CC1)c1ccc(F)cc1` [haloperidol, Haloperidol], for which the “effect on the PPI deficit (%PPI)” value in the assay on PLCβ1−/− mice is recorded as “completely reversed”. Besides, the “effect on the PPI (%PPI)” value in the assay with wild-type mice is recorded as “not effective”.
